Assay: solubility in organic solvents
Type: physicochemical

Question: Which “solubility in low-polarity solvents” value (low-polarity solvents, such as ethyl acetate) does the source give for `O=C(OCC1OC(OC(=O)c2cc(O)c(O)c(OC(=O)c3cc(O)c(O)c(O)c3)c2)C(OC(=O)c2cc(O)c(O)c(OC(=O)c3cc(O)c(O)c(O)c3)c2)C(OC(=O)c2cc(O)c(O)c(OC(=O)c3cc(O)c(O)c(O)c3)c2)C1OC(=O)c1cc(O)c(O)c(OC(=O)c2cc(O)c(O)c(O)c2)c1)c1cc(O)c(O)c(OC(=O)c2cc(O)c(O)c(O)c2)c1` (centres unmarked) [tannic acid, Tannic acid] here?
Answer: insoluble

Question: And the “solubility in polar solvents” value (polar solvents, such as NPM or MEK)?
Answer: soluble

Source: patent US20240315244A1, “ANTIVIRAL COATING AGENT, ANTIVIRAL AGENT, LAMINATED BODY, AND PACKAGE OR CONTAINER” (National Institute for Materials Science, priority 2021, published 2024)
